Source: US20240158412A1 (Faxian Therapeutics, LLC, priority 2021, published 2024)

Target: USP7 (Homo sapiens, UniProt Q93009)
Assay: biochemical
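Further: fluorescence intensity readout of USP7 enzymatic activity, reaction incubated 90 min at room temperature.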

USP7, sequence (Q93009 whole entry): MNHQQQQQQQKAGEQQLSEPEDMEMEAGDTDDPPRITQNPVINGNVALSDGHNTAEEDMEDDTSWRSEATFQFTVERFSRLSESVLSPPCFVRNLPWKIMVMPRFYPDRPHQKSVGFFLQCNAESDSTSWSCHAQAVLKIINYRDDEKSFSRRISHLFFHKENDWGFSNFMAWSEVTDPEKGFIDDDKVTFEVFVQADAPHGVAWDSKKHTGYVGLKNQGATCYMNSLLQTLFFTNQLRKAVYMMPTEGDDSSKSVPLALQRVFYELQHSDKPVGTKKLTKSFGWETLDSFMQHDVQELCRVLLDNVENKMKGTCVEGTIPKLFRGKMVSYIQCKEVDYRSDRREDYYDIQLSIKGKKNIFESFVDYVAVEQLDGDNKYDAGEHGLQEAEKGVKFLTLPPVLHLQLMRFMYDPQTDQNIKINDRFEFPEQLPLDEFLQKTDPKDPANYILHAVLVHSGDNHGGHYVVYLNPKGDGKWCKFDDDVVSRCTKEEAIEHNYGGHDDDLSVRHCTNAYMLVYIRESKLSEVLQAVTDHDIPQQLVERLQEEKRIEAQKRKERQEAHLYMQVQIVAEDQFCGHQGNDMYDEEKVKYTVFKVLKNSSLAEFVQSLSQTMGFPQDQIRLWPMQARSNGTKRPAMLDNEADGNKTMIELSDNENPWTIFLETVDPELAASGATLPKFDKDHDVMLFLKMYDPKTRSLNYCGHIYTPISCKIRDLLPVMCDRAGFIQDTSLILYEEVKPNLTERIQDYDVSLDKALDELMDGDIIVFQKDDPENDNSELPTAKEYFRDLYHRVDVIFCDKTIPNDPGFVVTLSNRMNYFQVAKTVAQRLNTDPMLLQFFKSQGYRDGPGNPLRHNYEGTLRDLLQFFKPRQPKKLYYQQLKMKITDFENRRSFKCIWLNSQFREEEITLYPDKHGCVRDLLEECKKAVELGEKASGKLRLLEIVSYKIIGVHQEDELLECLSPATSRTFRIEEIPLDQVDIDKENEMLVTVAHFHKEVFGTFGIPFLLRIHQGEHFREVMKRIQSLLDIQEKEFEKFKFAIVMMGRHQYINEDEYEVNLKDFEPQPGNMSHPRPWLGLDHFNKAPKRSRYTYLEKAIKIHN

Compound | IC50
C[C@]1(CO)C[C@H](N2CCOc3cc(C#N)cc(-c4cc[n+]([O-])c5cc(Cn6ncc(C7(C(F)(F)F)CC7)cc6=O)sc45)c32)CN1 [Example 223, 7-(7-cyano-4-((3S,5R)-5-(hydroxymethyl)-5-methylpyrrolidin-3-yl)-3,4-dihydro-2H-benzo[b][1,4]oxazin-5-yl)-2-((6-oxo-4-(1-(trifluoromethyl)cyclopropyl)pyridazin-1(6H)-yl)methyl)thieno[3,2-b]pyridine 4-oxide] | 0.01 to 0.1 µM
C[C@]1(CO)C[C@H](N2CCOc3cc(C(F)(F)F)cc(-c4ccnc5cc(CN6C(=O)CCC6=O)sc45)c32)CN1 [Example 224, 1-((7-(4-((3S,5R)-5-(hydroxymethyl)-5-methylpyrrolidin-3-yl)-7-(trifluoromethyl)-3,4-dihydro-2H-benzo[b][1,4]oxazin-5-yl)thieno[3,2-b]pyridin-2-yl)methyl)pyrrolidine-2,5-dione] | < 0.01 µM
CC(C)(C)c1cnn(Cc2cc3nccc(-c4cc(C#N)cc5c4N([C@@H]4CN[C@@](C)(CO)C4)C(=O)CO5)c3s2)c(=O)c1 [Example 225, 5-(2-((4-(tert-butyl)-6-oxopyridazin-1(6H)-yl)methyl)thieno[3,2-b]pyridin-7-yl)-4-((3S,5R)-5-(hydroxymethyl)-5-methylpyrrolidin-3-yl)-3-oxo-3,4-dihydro-2H-benzo[b][1,4]oxazine-7-carbonitrile] | < 0.01 µM
O=C1CCC(=O)N1Cc1cc2nccc(-c3cc(Cl)cc4c3N(c3cn[nH]c3)C(=O)CC4)c2s1 [Example 228, 1-((7-(6-chloro-2-oxo-1-(1H-pyrazol-4-yl)-1,2,3,4-tetrahydroquinolin-8-yl)thieno[3,2-b]pyridin-2-yl)methyl)pyrrolidine-2,5-dione] | 0.101 to 1 µM

The remaining lines, values ahead:

IC50 | Compound
< 0.01 µM | C[C@]1(CO)C[C@H](N2CCOc3cc(C#N)cc(-c4ccnc5cc(Cn6ncc(C7(C(F)(F)F)CC7)cc6=O)sc45)c32)CN1 [Example 222, 4-[(3S,5R)-5-(hydroxymethyl)-5-methyl-pyrrolidin-3-yl]-5-[2-[[6-oxo-4-[1-(trifluoromethyl)cyclopropyl]pyridazin-1-yl]methyl]thieno[3,2-b]pyridin-7-yl]-2,3-dihydro-1,4-benzoxazine-7-carbonitrile]
< 0.01 µM | C[C@]1(CO)C[C@H](N2C(=O)COc3cc(C#N)cc(-c4ccnc5cc(Cn6ncc(C7(C(F)(F)F)CC7)cc6=O)sc45)c32)CN1 [Example 226, 4-[(3S,5R)-5-(hydroxymethyl)-5-methyl-pyrrolidin-3-yl]-3-oxo-5-[2-[[6-oxo-4-[1-(trifluoromethyl)cyclopropyl]pyridazin-1-yl]methyl]thieno[3,2-b]pyridin-7-yl]-1,4-benzoxazine-7-carbonitrile]
